Among the test systems are SF-295; UACC-257; MDA-MB-231; DU-145; SK-MEL-5; Malme-3M; SNB-19; SK-OV-3; OVCAR-4; UO-31; SF-268; M14; SR; BT-549; SN12C; MDA-N; CAKI-1; MOLT-4; SNB-75.
Holding throughout (test): NCI-60 cell line screen, 48 h

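Protocol summary: plate cells (96-well), add compound at 5 concentrations, incubate 48 h, interpolate endpoints linearly. GI50 = concentration required for 50% inhibition of growth.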 Active and inactive are the calls of the source. Rule as the data show it: active = GI50 up to about 1.1 µM and inactive = higher. Bounds are passed on as bounds.

On to `CC(=O)Oc1ccc2c(c1OC(C)=O)CCC1C2=CC[C@]2(C)C(=O)CCC12` (some centres not stated), for which the GI50 in the assay with SF-295 is 12.9 µM (inactive); in the assay on UACC-257, 25.6 µM (inactive); in the assay with MDA-MB-231, 14.3 µM (inactive); in the assay with DU-145, 15.7 µM (inactive); in the assay with SK-MEL-5 it was < 0.01 µM (active); in the assay on Malme-3M, 13.8 µM (inactive). In addition, the GI50 in the assay on SNB-19 is 12.5 µM (inactive); in the assay on SK-OV-3, 20.7 µM (inactive); with OVCAR-4, 3.36 µM (inactive); in the assay on UO-31, 9.57 µM (inactive); in the assay on SF-268 it was 12.1 µM (inactive); in the assay on M14, 12.5 µM (inactive). Besides, the GI50 is 6.61 µM (inactive) in the assay with SR; 15.6 µM (inactive) in the assay with BT-549; 14.1 µM (inactive) in the assay with SN12C; 14.2 µM (inactive) in the assay on MDA-N; 6.07 µM (inactive) in the assay on CAKI-1; 3.3 µM (inactive) with MOLT-4.
As to `COC(=O)N1CC(=O)C(C(=O)NC23CC4CC(CC(C4)C2)C3)C1` (configuration not stated), the GI50 in the assay on SF-295 is 56.6 µM (inactive); in the assay with UACC-257, > 100 µM (inactive); with MDA-MB-231, 42.7 µM (inactive); in the assay with DU-145 it was 76.4 µM (inactive); with SK-MEL-5, 45.6 µM (inactive); with Malme-3M it was 78.7 µM (inactive). Besides, the GI50 with SNB-19 is > 100 µM (inactive); with OVCAR-4, > 100 µM (inactive); with UO-31, > 100 µM (inactive); with SF-268, 37.7 µM (inactive); in the assay with M14, > 100 µM (inactive); in the assay with SR, 48.3 µM (inactive). The GI50 in the assay with BT-549 is 66.7 µM (inactive); with MDA-N it was > 100 µM (inactive); with CAKI-1, > 100 µM (inactive); with MOLT-4, 35.8 µM (inactive).
On to `OC(c1ccc(F)cc1)(c1ccc(F)cc1)C1CC1`, for which the GI50 in the assay on SNB-75 is 50.6 µM (inactive); in the assay with SF-295 it was 27.9 µM (inactive); in the assay with UACC-257, 26 µM (inactive); in the assay on MDA-MB-231, 36.1 µM (inactive); in the assay on DU-145 it was 49.9 µM (inactive); in the assay on SK-MEL-5, 16.6 µM (inactive). Moreover, the GI50 in the assay with Malme-3M was 23.9 µM (inactive); in the assay with SNB-19 it was 42.8 µM (inactive); in the assay with SK-OV-3, 37.9 µM (inactive); in the assay with OVCAR-4, 26.2 µM (inactive); in the assay on UO-31, 21.3 µM (inactive); with SF-268, 32.2 µM (inactive). Moreover, the GI50 is 21.5 µM (inactive) with M14; 19.2 µM (inactive) in the assay on BT-549; 20.9 µM (inactive) in the assay with SN12C; 19.4 µM (inactive) in the assay with MDA-N; 25.3 µM (inactive) in the assay on CAKI-1; 21.5 µM (inactive) in the assay on MOLT-4.
In the case of `CCCCCc1cc2cc3c(c(O)c2c(=O)[nH]1)C1(CC3)C(=O)c2c(O)c3c(c(O)c2C1=O)C(=O)C(OC)=CC3=O` (configuration not stated), the GI50 in the assay with SNB-75 was 1.58 µM (inactive); in the assay on SF-295 it was 3.01 µM (inactive); in the assay on UACC-257 it was 0.444 µM (active); with MDA-MB-231 it was 0.479 µM (active); with DU-145, 1.05 µM (active); in the assay on SK-MEL-5, 0.64 µM (active). The GI50 with Malme-3M is 0.524 µM (active); with SNB-19, 1.08 µM (active); in the assay with SK-OV-3 it was 2.61 µM (inactive); in the assay with OVCAR-4, 0.822 µM (active); in the assay with UO-31 it was 0.687 µM (active); in the assay on SF-268 it was 0.946 µM (active). The GI50 in the assay with M14 was 0.893 µM (active); with BT-549, 1.08 µM (active); in the assay with SN12C, 0.877 µM (active); with MDA-N it was 1.3 µM (inactive); in the assay with CAKI-1, 0.259 µM (active); in the assay on MOLT-4 it was 0.56 µM (active).
Take `C=C[C@@H](C)[C@H](NS(=O)(=O)c1ccc(C)cc1)C(=O)OCC`: the GI50 was 15.3 µM (inactive) in the assay on SNB-75; 21.2 µM (inactive) in the assay on SF-295; 24.9 µM (inactive) with UACC-257; > 100 µM (inactive) with MDA-MB-231; 37.1 µM (inactive) in the assay with DU-145; 39.7 µM (inactive) in the assay on Malme-3M. The GI50 with SNB-19 was 74 µM (inactive); in the assay with SK-OV-3, 36.6 µM (inactive); with OVCAR-4, 27.2 µM (inactive); with UO-31, 31.3 µM (inactive); with SF-268 it was 32 µM (inactive); with M14 it was 54.1 µM (inactive). Moreover, the GI50 is 30.8 µM (inactive) with SR; 76.4 µM (inactive) in the assay on BT-549; > 100 µM (inactive) with SN12C; 28 µM (inactive) with MDA-N; 50.6 µM (inactive) in the assay on MOLT-4.
Regarding `Cc1ccc(/C=C/C(=O)Oc2ccc(/C=C3\CCC/C(=C\c4ccc(OC(=O)/C=C/c5ccc(C)cc5)cc4)C3=O)cc2)cc1`, the GI50 in the assay on SNB-75 is 14.2 µM (inactive); in the assay on SF-295, 25.1 µM (inactive); in the assay with UACC-257 it was > 100 µM (inactive); with MDA-MB-231, 28.8 µM (inactive); with DU-145, > 100 µM (inactive); in the assay on SK-MEL-5, > 100 µM (inactive). Besides, the GI50 is 56.8 µM (inactive) in the assay with SNB-19; > 100 µM (inactive) in the assay with OVCAR-4; > 100 µM (inactive) with UO-31; > 100 µM (inactive) in the assay on SF-268; > 100 µM (inactive) in the assay with M14; 27.5 µM (inactive) with SR. Further, the GI50 is > 100 µM (inactive) in the assay with BT-549; > 100 µM (inactive) in the assay on SN12C; > 100 µM (inactive) in the assay on MDA-N; 79.8 µM (inactive) in the assay with CAKI-1; > 100 µM (inactive) in the assay with MOLT-4.
For the compound `CCOC(=O)CCCSCCCC(=O)CCCSCCCC(=O)OCC`, the GI50 with SNB-75, with SF-295, with UACC-257, in the assay with MDA-MB-231, with DU-145 and in the assay with SK-MEL-5 was > 100 µM (inactive) in each case. The GI50 in the assay on SNB-19, in the assay on SK-OV-3, in the assay on OVCAR-4, in the assay with UO-31, in the assay with SF-268 and in the assay on M14 was > 100 µM (inactive) throughout. The GI50 in the assay with SR, in the assay with BT-549, with SN12C, with MDA-N and in the assay on MOLT-4 was > 100 µM (inactive) each time.
`Cn1ccnc1CCc1ccc(F)cc1F`: the GI50 in the assay on SNB-75, in the assay with SF-295, in the assay on MDA-MB-231, with DU-145, in the assay on SK-MEL-5 and in the assay on Malme-3M was > 100 µM (inactive) each time. Also, the GI50 in the assay with SNB-19, in the assay with SK-OV-3, in the assay with OVCAR-4, in the assay with UO-31, in the assay on SF-268 and with M14 was > 100 µM (inactive) in each case. For the same compound, the GI50 in the assay with SR, in the assay on BT-549, in the assay on SN12C, in the assay on MDA-N and with MOLT-4 was > 100 µM (inactive) throughout.
For `Cc1cnc(-n2c(C)nc3cc(Cl)ccc3c2=O)s1`, the GI50 with SNB-75 is 10.6 µM (inactive); in the assay with SF-295 it was 37.1 µM (inactive); in the assay on UACC-257, 29.1 µM (inactive); in the assay with MDA-MB-231 it was 42.5 µM (inactive); with DU-145 it was 25.6 µM (inactive); in the assay on SK-MEL-5, 16 µM (inactive). For the same compound, the GI50 in the assay on Malme-3M was 67.9 µM (inactive); in the assay on SNB-19, 35.1 µM (inactive); in the assay on SK-OV-3 it was > 100 µM (inactive); in the assay on OVCAR-4, 58.5 µM (inactive); with UO-31, 1.28 µM (inactive); with SF-268, 44.1 µM (inactive). In addition, the GI50 is 31.6 µM (inactive) in the assay on M14; 28.4 µM (inactive) in the assay with BT-549; 34.2 µM (inactive) in the assay with SN12C; 13 µM (inactive) with MDA-N; 64.3 µM (inactive) in the assay on CAKI-1; 30.8 µM (inactive) in the assay with MOLT-4.
As for `CCc1nc(N)nc(N)c1-c1ccc(N2CCNCC2)cc1`, the GI50 in the assay with SNB-75 is > 100 µM (inactive); in the assay on SF-295 it was 79.6 µM (inactive); with UACC-257 it was 33.2 µM (inactive); with MDA-MB-231, > 93.3 µM (inactive); in the assay on DU-145, 62.7 µM (inactive); with SK-MEL-5, 19.8 µM (inactive). For the same compound, the GI50 is 47.6 µM (inactive) with SNB-19; > 100 µM (inactive) with SK-OV-3; 74.8 µM (inactive) in the assay on OVCAR-4; > 100 µM (inactive) in the assay with UO-31; 84.7 µM (inactive) in the assay with SF-268; 34.9 µM (inactive) in the assay with M14. In addition, the GI50 with SR was 23.4 µM (inactive); with BT-549 it was 64 µM (inactive); in the assay with SN12C, 87.7 µM (inactive); in the assay with MDA-N it was 64.7 µM (inactive); in the assay with CAKI-1, > 97.3 µM (inactive); in the assay with MOLT-4 it was 41 µM (inactive).
In the case of `CC(C)CC(N)C(=O)NC(C(=O)NC(CCCNC(=N)N)C(=O)NC(CS)C(=O)NC1CSCC(C(=O)NC(Cc2ccccc2)C(=O)NC(C(=O)NC(CCCNC(=N)N)C(=O)O)C(C)C)NC(=O)C2CCCN2C(=O)C(CCCCN)NC(=O)C2CCCN2C(=O)C2CCCN2C(=O)C(Cc2ccc(O)cc2)NC(=O)C(CO)NC(=O)C(CCCCN)NC(=O)C(C(C)O)NC(=O)C(Cc2c[nH]c3ccccc23)NC1=O)C(C)C` (configuration not stated), the GI50 in the assay on SF-295, with UACC-257, in the assay with MDA-MB-231, in the assay on DU-145, in the assay on SK-MEL-5 and in the assay with Malme-3M was > 25 µM (inactive) each time. Besides, the GI50 with SNB-19, in the assay with SK-OV-3, in the assay with OVCAR-4, with UO-31, with SF-268 and in the assay on M14 was > 25 µM (inactive) in each case. Besides, the GI50 in the assay with SR, in the assay on BT-549, with SN12C, in the assay with MDA-N, with CAKI-1 and in the assay with MOLT-4 was > 25 µM (inactive) throughout.
